# Test: method code SF-HPLC, from DOI: 10.1081/jlc-100101463
# Conditions: pH 12.0
row,Compound,logD
1,Cc1cc(C)cc(OCC2CN=C(N)O2)c1 (stereo not drawn),2.24
2,CC1CCCC(C)N1CC1CN=C(N)O1 (stereo not drawn),0.94
3,NC1=NCC(CN2CCC(c3ccccc3)CC2)O1 (stereo not drawn),1.96
4,CC1CCN(CC2CN=C(N)O2)CC1 (stereo not drawn),0.91
5,NC1=NCC(CN2CCC(Cc3ccccc3)CC2)O1 (stereo not drawn),2.38
6,CC(=O)c1cccc(OCC2CN=C(N)O2)c1 (stereo not drawn),1.31
7,CC1CCCCN1CC1CN=C(N)O1 (stereo not drawn),0.73
8,NC1=NCC(CN2CCOCC2)O1 (stereo not drawn),-0.22
9,NC1=NCC(CN2CC=CCC2)O1 (stereo not drawn),0.19
10,CC1CN(CC2CN=C(N)O2)CC(C)O1 (stereo not drawn),0.16
11,NC1=NCC(CN2CCC(C(=O)c3ccccc3)CC2)O1 (stereo not drawn),1.05
12,CC(C)N(CC1CN=C(N)O1)C(C)C (stereo not drawn),0.98
13,CC(C)(C)c1ccc(OCC2CN=C(N)O2)cc1 (stereo not drawn),2.87
